Measured values as given in patent publication US5260327A, “Methods for inhibiting the proliferation of brain and hepatic metastases by using lonidamine” (priority 1992, dated 1993).
“Also recorded” adds a separate entry of the source.

Legend:
HeLa cells = test: Effect of gossypol on cell multiplication at 37° C.; format: cell-based, human
Protocol: (§1) Experiments were carried out with HeLa S-3 cells grown in Eagle's minimal essential medium supplemented with 10% fetal calf serum.
(§2) The pH of the culture medium was adjusted by varying the CO2 content of the gas phase within the flasks. The buffering system of Eagle's minimal essential medium consisted of 26 mM NaHCO3 at 5% CO2 for neutral pH of 7.4. To obtain a pH of 6.7, for example, the flasks were flushed with the gas mixtures containing 26% CO2. The pH of the culture medium was monitored throughout the treatment procedures by sealing a combination electrode in a treatment vessel and monitored with temperature-compensated digital pH meter.
(§3) Gossypol was dissolved in DMSO immediately prior to experiments. DMSO produced no enhancement of hyperthermic cytotoxicity with the range studied.
Preliminary experiments were carried out to determine the effect of gossypol on cell division. Exponentially growing HeLa cells were exposed to the drug for 72 hours at 37° C. Control cells grew exponentially with a doubling time of approximately 19 hours.

HeLa S-3 cells [1] = test: Effect of gossypol on cell survival at elevated temperature, pH and glucose conditions; format: cell-based, human; conditions: for viability at 10 µg/mL: Homo sapiens, HeLa S3
Protocol: as §1
Plated monolayer cells were heated within 0.05° of the desired temperature by totally immersing plastic culture flasks in a heated water bath. Water bath temperatures were verified by a National Bureau of Standards thermometer.
as §2
(§4) The "glucose-deprived" medium was prepared by adding 10% dialyzed fetal calf serum to the culture medium without glucose. The dialyzed fetal calf serum contained less than 1 mg glucose per 100 ml so that the final concentration of glucose in the "glucose-deprived" medium was less than 0.001 mg per ml.
as §3
For example, at 10 μg/m. and 2 hours exposure at 42° C., the cells survival is reduced to 1% under acidic condition. Heat treatment alone reduces the cell survival to only 50% of the control.
Since gossypol has been reported to interfere with cellular energy metabolism, experiments were performed to determine the influence of glucose on the cytotoxic effect of gossypol. […] The survival of glucose-fed cells exposed to the same treatment was approximately 10% while that of glucose-deprived cells can further enhance the cytotoxic effect of gossypol at elevated temperature.

spermatogenesis = conditions: in vivo; cited from earlier work
[2] = test system: glycolytic and mitochondrial bound enzymes; conditions: cited from earlier work
[3] = test system: cultured tumor cell lines; conditions: cited from earlier work
testicular tissues = conditions: cited from earlier work
cells = conditions: high doses; cited from earlier work
HeLa S-3 cells [4] = test: cells; format: cell-based, human; conditions: for viability at 10 µg/mL: Homo sapiens, HeLa S3, 24 hours
Protocol: Experiments were carried out with HeLa S-3 cells grown in Eagle's minimal essential medium supplemented with 10% fetal calf serum. […] No antifungal agent was used.
Cell survival was assayed by colony-forming ability of plated single cells to obtain quantitative dose-survival curves. Details of cloning experiments including colony court have been described elsewhere (See, e.g., Kim et al. supra).
Plated a synchronous monolayer cells were heated to within 0.05° C. of the desired temperature by totally immersing plastic culture flasks in a water bath. Water bath temperatures were verified by a National Bureau of Standards calibrated thermometer.
The pH of the culture medium was adjusted by varying the CO2 content of the gas phase within the flasks. […] The pH of the culture medium was monitored throughout the treatment procedures by sealing a combination electrode in a treatment vessel and monitored with a temperature-compensated digital pH meter.
as §4

MCA mammary carcinoma = test: Radiation enhancement in the transplanted MCA mammary carcinoma, with or without mild hyperthermia; format: in vivo, murine
Protocol: Nicotinamide was administered intraperitoneal one (1) […] before irradiation. Localized mild hyperthermia (41° C.) was applied for one (1) hour immediately prior to irradiation.

Meth-A fibrosarcoma = test: Radiation enhancement by nicotinamide in Meth-A fibrosarcoma; format: in vivo, murine; conditions: radiosensitive tumor
Description: The mechanism by which nicotinamide produces radiation enhancement is not established.

[5] = test system: EMT-6, Lewis Lung, and RIF-1 tumors; conditions: injection prior to radiation treatment; cited from earlier work
[6] = test system: poly-ADP ribose synthetase; conditions: cited from earlier work
cell culture models = test: Radiation enhancement by nicotinamide in cell culture; format: cell-based
Description: (22) See FIGS. 9 and 10. As noted previously, the following DMF's were obtained for the respective experimental conditions: Nicotinamide+Radiation Therapy=1.36, Hyperthermia+Radiation Therapy=1.36, Nicotinamide+Hyperthermia+Radiation Therapy=1.64.

[7] = Tolerability of nicotinamide in mice; conditions: optimal dose of 0.5 gm/kg (1.5 gm/m^2)
[8] = in vivo; cited from earlier work
[9] = test system: C3H mammary adenocarcinoma; conditions: transplanted C3H mammary adenocarcinoma; cited from earlier work
[10] = human cancer cells (HeLa), heated
[11] = acidic pH, glucose-deprived cells

Cc1cc2c(C(C)C)c(O)c(O)c(C=O)c2c(O)c1-c1c(C)cc2c(C(C)C)c(O)c(O)c(C=O)c2c1O [gossypol]
growth rate versus control (HeLa cells; 1.25 μg/ml): the same as that of the control cells
doubling time (HeLa cells; 2.5 μg/ml, incubation times greater than 24 hours): a lengthening of doubling time was observed
growth curve versus control (HeLa cells; 2.5 μg/ml, initial 24 hours): not significantly different from the control
cell growth (multiplication) (HeLa cells; 5, 10 and 20 μg/ml, 72 hours): grew exponentially for the first 24 hour period and then remained stationary
cytotoxicity, glucose deprivation at 37° C. (HeLa S-3 cells [1]; 10 μg/ml, glucose-deprived, 37° C., pH 7.4): no apparent cytotoxicity
cell killing, glucose deprivation at 42° C. (HeLa S-3 cells [1]; 10 μg/ml, glucose-deprived, 42° C. for 4 hours, pH 7.4): a substantial increase in cell killing
drug toxicity (cell survival) (HeLa S-3 cells [1]; 5 and 10 μg/ml, up to 4 hours, 37° C., acidic or neutral conditions): no appreciable drug toxicity
viability at 10 µg/mL (HeLa S-3 cells [1]; 10 μg/ml, 2 hours exposure at 42° C., acidic condition (heat alone: 50% of control), read-out: cell survival): 1%
viability at 10 µg/mL (HeLa S-3 cells [1]; 10 μg/ml, glucose-fed, 42° C. for 4 hours, pH 7.4, read-out: survival of glucose-fed cells): ~10%
pH dependence of cytotoxic effect of hyperthermia on drug-treated cells (HeLa S-3 cells [1]; elevated temperature, acidic vs neutral): most pronounced under acidic conditions
hyperthermic sensitization (HeLa S-3 cells [1]; [10]): effective hyperthermic sensitizers of human cancer cells
inhibition of spermatogenesis (spermatogenesis): inhibitor of spermatogenesis
enzyme inhibition [2]: inhibition of glycolytic and mitochondrial bound enzymes
anti-tumor effects [3]: anti-tumor effects against cultured tumor cell lines
toxicity to testicular tissues (testicular tissues; in vivo): selectively toxic to testicular tissues
effect on other tissues (testicular tissues; non-testicular tissues): no observable effect on other tissues

COC(=O)c1ccccc1-c1c2ccc(=N)cc-2oc2cc(N)ccc12 [rhodamine 123]
effects of continuous exposure (cells): inhibit oxidative phosphorylation, to arrest cells in G1 phase, and to induce loss of reproductive capacity
cell surviving fraction, initial 4 hour exposure (HeLa S-3 cells [4]; 10 μg/ml, 4 hours, 37° C., glucose-fed or glucose-deprived): no appreciable reduction in the cell surviving fraction
cell survival at 37° C., exposure limit (HeLa S-3 cells [4]; 37° C., 4 hour): did not produce any detectable reduction in cell survival
effect on hyperthermic cytotoxicity, glucose-deprived vs glucose-fed cells (HeLa S-3 cells [4]; 40, 41 and 42° C., up to 4 hours): selectively increased the cytotoxic effects of hyperthermia in glucose-deprived cells relative to glucose-fed cells
viability at 10 µg/mL (HeLa S-3 cells [4]; 10 μg/ml, 37° C., glucose-deprived, read-out: surviving fraction in the absence of glucose): < 1%
viability at 10 µg/mL (HeLa S-3 cells [4]; 10 μg/ml, 37° C., glucose-fed, read-out: surviving fraction in the presence of glucose): 80%
cytotoxicity at acidic pH relative to pH 7.4 (HeLa S-3 cells [4]; [11]): less than that observed at pH 7.4
influence of acidic pH on cytotoxicity of heat (HeLa S-3 cells [4]; [11]): did not substantially enhance the cytotoxicity of heat in glucose-deprived cells
dependence of potentiation of heat effects (HeLa S-3 cells [4]; glucose-deprived cells, two hours): dependent on the elevated temperature and drug concentration in glucose-deprived cells
hyperthermia enhancement in glucose-fed cells (HeLa S-3 cells [4]; glucose-fed, different temperatures for two hours): No hyperthermia enhancement
hyperthermic sensitization (HeLa S-3 cells [4]; [10]): effective hyperthermic sensitizers of human cancer cells

O=C(O)c1cccnc1 [nicotinic acid]
radiation enhancement, MCA mammary tumor, nicotinic acid (MCA mammary carcinoma; even at the LD10 dosage): did not produce radiation enhancement

NC(=O)c1cccnc1 [nicotinamide]
radiation enhancement in oxic Meth-A fibrosarcoma (Meth-A fibrosarcoma): inactive against the oxic Meth-A fibrosarcoma model; also recorded: no radio-enhancing effect
optimal timing of drug for radiation enhancement [5]: 1 to 3 h
radiation dose modification factor, nicotinamide + hyperthermia + radiation (MCA mammary carcinoma; 0.5 gm/kg 1 hour prior to radiation, 41° C. for one hour, b79 statement): 1.77
DMF, Nicotinamide+Hyperthermia+Radiation Therapy (MCA mammary carcinoma; 125 to 500 mg/kg i.p. one hour prior to irradiation, 1 hour heating at 41° C., b86 statement): 1.64
DMF, Nicotinamide+Radiation Therapy (MCA mammary carcinoma; 125 to 500 mg/kg i.p. one hour prior to irradiation, b86 statement): 1.36
enhancement of effects of radiation and radiation plus hyperthermia (MCA mammary carcinoma; 125 to 500 mg/kg i.p., one hour prior to irradiation, 41° C. 1 hour): clear enhancement of the effects of radiation and radiation plus hyperthermia
DMF, nicotinamide plus radiation (without hyperthermia) (MCA mammary carcinoma; without hyperthermia, b79 statement): 1.35
inhibition of poly-ADP ribose synthetase [6]: inhibitor of poly-ADP ribose synthetase
activity in cell culture models (cell culture models; in our hands): not active in cell culture models
radiation enhancement in cell culture (cell culture models; nicotinamide concentrations <10 mM): No radiation enhancement
toxicity in mice [7]: non-toxic in mice
safety in humans [8]: safe and associated with only a low incidence of side effects
radiation enhancing effects [9]: radiation enhancing effects
